# Data as given in patent US20260021186A1, “Fatty Acid-D-Amino Acid Peptides Conjugates as Anaplerotic Compounds for Use in Treating Propionic Acidemia, Methylmalonic Acidurias, and Energy Metabolic Disorders” (University of Pittsburgh - Of the Commonwealth System of …, priority 2022, published 2026).
# How the values were obtained:
# [1] = system: HEK293 PCCA−/− cells; test: Lysine succinylation of cellular proteins by immunofluorescence confocal microscopy; assay type: cell-based, human; settings: FIGS. 9C, 9D; 30 μM and 90 μM; media without glucose, pyruvate, and glutamine
# Experimental: FIGS. 9A-9F are a comparison of lysine succinylation of cellular proteins visualized by immunofluorescence confocal microscopy in human HEK293 control and HEK293 PCCA^−/− cells untreated (FIGS. 9A and 9B) and treated with 30 μM and 90 μM of PMA007 (FIG. 9C) or 30 μM and 90 μM of PMA010 (FIG. 9D). The cells in FIGS. 9B, 9C, and 9D were grown in media without glucose, pyruvate, and glutamine. Scale bar=20 μm. FIG. 9E is a bar graph showing the quantification of the percent change in lysine succinylation (green) signal, from the immunofluorescence confocal micrographs of FIGS. 9B and 9C, in response to the treatment of PMA007. FIG. 9F is a bar graph showing the quantification of the percent change in lysine succinylation (green) signal, from the immunofluorescence confocal micrographs of FIGS. 9B and 9D, in response to the treatment of PMA010. Asterisks indicate statistical significance calculated at the raw data level (n=3); **P<0.01. ****P<0.0001 statistically compared to untreated. Statistical analysis used T-test.
# FIGS. 9A-9F are a comparison of lysine succinylation of cellular proteins visualized by immunofluorescence confocal microscopy in human HEK293 control and in untreated and treated HEK293 PCCA^−/− knock out cells. […] The PMA007 treatment data in the bar graph of FIG. 9E are the quantitation of the images of FIG. 9C compared to untreated control in FIG. 9B. […]
# [2] = system: PA patient cells, Fb859; test: Measurement of mitochondrial respiration (Seahorse XF MitoStress test, OCR); assay type: cell-based, human; settings: FIGS. 12A-12D; 30 μM and 90 μM for 72 h
# Experimental: Measurement of Mitochondrial Respiration Seahorse: Fb859 cells were grown in regular DMEM media until 85-90% confluency. The cells were harvested and seeded at a concentration of 25,000 cells/80 μl (n=8 replicates) in poly-D lysine coated XFe seahorse 96well plate in regular DMEM media and incubated overnight at 37° C. in a 5% CO2 incubator. Following day, the culture media was replaced in designated wells with the following for 72 h:180 μl of Specialty Media A (seahorse XFDMEM base media+10% fat stripped FBS+Glucose+sodium pyruvate+L-glutamine+0.5 mM carnitine). 180 μl of Specialty Media B (scahorse XFDMEM base media+10% stripped FBS+0.5 mM carnitine and no added glucose, sodium pyruvate or glutamine). 180 μl of Specialty media B containing experimental compounds. After 72 h incubation the Specialty media A & B was replaced in respective designated wells with 180 μL Seahorse XF DMEM base media containing glucose, sodium pyruvate. […] OCR was determined (Seahorse XF MitoStress test). Finally, cells were lysed, and protein content was determined. […]
# Measurement of Mitochondrial Respiration: Control Fb826 and Patient Fb859 cells were grown in regular DMEM media without adding extra glutamine until 85-90% confluency. […] Oxygen consumption rate (OCR) was determined (Seahorse XF MitoStress test). Finally, cells were lysed, and protein content was determined. […]
structure (smiles),measurement,setting,value
"C[C@@H](NC(=O)CCCCC(=O)O)C(=O)N[C@H](Cc1c[nH]cn1)C(=O)O [PMA010, 6-(((R)-1-(((R)-1-carboxy-2-(1H-imidazol-4-yl)ethyl)amino)-1-oxopropan-2-yl)amino)-6-oxohexanoic acid]",lysine succinylation (green) signal,[1],green color was restored
same,oxygen consumption parameters compared to individual components D-Serine and D-Histidine,[2],improved
